# Results taken from ChEMBL document CHEMBL2440076, “New triarylpyrazoles as broad-spectrum anticancer agents: design, synthesis, and biological evaluation” (Eur J Med Chem, 2013).
# How the values were obtained:
# UO-31 [1] = experiment: Growth inhibition of human UO31 cells assessed as cell growth at 10 uM after 48 hrs by sulforhodamine B assay; type: functional; conditions: UO-31, 48 h, read-out: Activity
# HL-60(TB) = experiment: Growth inhibition of human HL-60(TB) cells assessed as cell growth at 10 uM after 48 hrs by sulforhodamine B assay; type: functional; conditions: HL-60, 48 h, read-out: Activity
# OVCAR-8 [2] = experiment: Growth inhibition of human OVCAR8 cells assessed as cell growth at 10 uM after 48 hrs by sulforhodamine B assay; type: functional; conditions: OVCAR-8, 48 h, read-out: Activity
# OVCAR-8 [3] = experiment: Growth inhibition of human OVCAR8 cells after 48 hrs by sulforhodamine B assay; type: functional; conditions: OVCAR-8, 48 h
# SF-268 [4] = experiment: Growth inhibition of human SF268 cells after 48 hrs by sulforhodamine B assay; type: functional; conditions: SF-268, 48 h
# SF-268 [5] = experiment: Growth inhibition of human SF268 cells assessed as cell growth at 10 uM after 48 hrs by sulforhodamine B assay; type: functional; conditions: SF-268, 48 h, read-out: Activity
# UO-31 [6] = experiment: Growth inhibition of human UO31 cells after 48 hrs by sulforhodamine B assay; type: functional; conditions: UO-31, 48 h
# NCI-H23 = experiment: Growth inhibition of human NCI-H23 cells after 48 hrs by sulforhodamine B assay; type: functional; conditions: NCI-H23, 48 h
# MDA-MB-435 = experiment: Growth inhibition of human MDA-MB-435 cells after 48 hrs by sulforhodamine B assay; type: functional, cell-based; conditions: MDA-MB-435, 48 h
# OVCAR-3 = experiment: Growth inhibition of human OVCAR3 cells assessed as cell growth at 10 uM after 48 hrs by sulforhodamine B assay; type: functional; conditions: OVCAR-3, 48 h, read-out: Activity
# HCT-15 = experiment: Growth inhibition of human HCT15 cells after 48 hrs by sulforhodamine B assay; type: functional; conditions: HCT-15, 48 h
# NCI-H460 = experiment: Growth inhibition of human NCI-H460 cells after 48 hrs by sulforhodamine B assay; type: functional; conditions: NCI-H460, 48 h
# MOLT-4 = experiment: Growth inhibition of human MOLT4 cells after 48 hrs by sulforhodamine B assay; type: functional; conditions: MOLT-4, 48 h
# 786-0 = experiment: Growth inhibition of human 786-0 cells after 48 hrs by sulforhodamine B assay; type: functional; conditions: 786-0, 48 h
# M14 = experiment: Growth inhibition of human M14 cells after 48 hrs by sulforhodamine B assay; type: functional; conditions: M14, 48 h
# Malme-3M = experiment: Growth inhibition of human MALME-3M cells after 48 hrs by sulforhodamine B assay; type: functional
# T47D = experiment: Growth inhibition of human T47D cells assessed as cell growth at 10 uM after 48 hrs by sulforhodamine B assay; type: functional; conditions: read-out: Activity
# U-251 [7] = experiment: Growth inhibition of human U251 cells after 48 hrs by sulforhodamine B assay; type: functional; conditions: U-251, 48 h
# [8] = Growth inhibition of human NCI-ADR-RES cells after 48 hrs by sulforhodamine B assay; type: functional
# OVCAR-4 = experiment: Growth inhibition of human OVCAR4 cells after 48 hrs by sulforhodamine B assay; type: functional; conditions: OVCAR-4, 48 h
# HOP-62 [9] = experiment: Growth inhibition of human HOP62 cells assessed as cell growth at 10 uM after 48 hrs by sulforhodamine B assay; type: functional; conditions: HOP-62, 48 h, read-out: Activity
# CAKI-1 = experiment: Growth inhibition of human CAKI-1 cells after 48 hrs by sulforhodamine B assay; type: functional; conditions: CAKI-1, 48 h
# [10] = Growth inhibition of human Hs 578T cells assessed as cell growth at 10 uM after 48 hrs by sulforhodamine B assay; type: functional; conditions: read-out: Activity
# OVCAR-5 [11] = experiment: Growth inhibition of human OVCAR5 cells assessed as cell growth at 10 uM after 48 hrs by sulforhodamine B assay; type: functional; conditions: OVCAR-5, 48 h, read-out: Activity
# PC-3 = experiment: Growth inhibition of human PC3 cells assessed as cell growth at 10 uM after 48 hrs by sulforhodamine B assay; type: functional; conditions: PC-3, 48 h, read-out: Activity
# OVCAR-5 [12] = experiment: Growth inhibition of human OVCAR5 cells after 48 hrs by sulforhodamine B assay; type: functional; conditions: OVCAR-5, 48 h
# SK-MEL-5 = experiment: Growth inhibition of human SK-MEL-5 cells after 48 hrs by sulforhodamine B assay; type: functional; conditions: SK-MEL-5, 48 h
# HOP-62 [13] = experiment: Growth inhibition of human HOP62 cells after 48 hrs by sulforhodamine B assay; type: functional; conditions: HOP-62, 48 h
# COLO 205 = experiment: Growth inhibition of human COLO205 cells assessed as cell growth at 10 uM after 48 hrs by sulforhodamine B assay; type: functional; conditions: COLO 205, 48 h, read-out: Activity
# SK-OV-3 = experiment: Growth inhibition of human SKOV3 cells assessed as cell growth at 10 uM after 48 hrs by sulforhodamine B assay; type: functional; conditions: SK-OV-3, 48 h, read-out: Activity
# NCI-H522 = experiment: Growth inhibition of human NCI-H522 cells assessed as cell growth at 10 uM after 48 hrs by sulforhodamine B assay; type: functional; conditions: NCI-H522, 48 h, read-out: Activity
# CCRF-CEM = experiment: Growth inhibition of human CCRF-CEM cells after 48 hrs by sulforhodamine B assay; type: functional
# SR = experiment: Growth inhibition of human SR cells after 48 hrs by sulforhodamine B assay; type: functional
# [14] = Growth inhibition of human NCI-ADR-RES cells assessed as cell growth at 10 uM after 48 hrs by sulforhodamine B assay; type: functional; conditions: read-out: Activity
# U-251 [15] = experiment: Growth inhibition of human U251 cells assessed as cell growth at 10 uM after 48 hrs by sulforhodamine B assay; type: functional; conditions: U-251, 48 h, read-out: Activity
# [16] = read-out: LC50 (the source's name)
compound,measurement,setting,value
O=C(Nc1cccc(-n2cc(-c3ccncc3)c(-c3ccc(Cl)c(O)c3)n2)c1)Nc1cccc(C(F)(F)F)c1,growth at 10 µM,UO-31 [1],24.8%
same,growth at 10 µM,HL-60(TB),12.5%
same,growth at 10 µM,OVCAR-8 [2],10.6%
same,GI50,OVCAR-8 [3],1.57 µM
same,TGI,OVCAR-8 [3],> 32.5 µM
same,CC50,OVCAR-8 [3]; [16],> 32.5 µM
same,GI50,SF-268 [4],1.95 µM
same,TGI,SF-268 [4],15.8 µM
same,CC50,SF-268 [4]; [16],> 32.5 µM
same,growth at 10 µM,SF-268 [5],28.5%
same,GI50,UO-31 [6],1.86 µM
same,TGI,UO-31 [6],> 32.5 µM
same,CC50,UO-31 [6]; [16],> 32.5 µM
same,GI50,NCI-H23,1.9 µM
same,LC50,NCI-H23,> 32.5 µM
same,TGI,NCI-H23,> 32.5 µM
same,GI50,MDA-MB-435,1.49 µM
same,IC50,MDA-MB-435,1.49 µM
same,TGI,MDA-MB-435,12.6 µM
same,CC50,MDA-MB-435; [16],> 32.5 µM
same,growth at 10 µM,OVCAR-3,0.81%
same,GI50,HCT-15,1.51 µM
same,LC50,HCT-15,> 32.5 µM
same,TGI,HCT-15,> 32.5 µM
same,GI50,NCI-H460,1.18 µM
same,LC50,NCI-H460,> 32.5 µM
same,TGI,NCI-H460,29 µM
same,GI50,MOLT-4,1.92 µM
same,TGI,MOLT-4,> 32.5 µM
same,CC50,MOLT-4; [16],> 32.5 µM
same,GI50,786-0,4.69 µM
same,TGI,786-0,> 32.5 µM
same,CC50,786-0; [16],> 32.5 µM
same,GI50,M14,1.4 µM
same,LC50 (concentration killing 50% of cells),M14,> 32.5 µM
same,TGI,M14,10.8 µM
same,GI50,Malme-3M,1.81 µM
same,LC50 (concentration killing 50% of starting cells),Malme-3M,> 32.5 µM
same,TGI,Malme-3M,20.1 µM
same,growth at 10 µM,T47D,18.5%
same,GI50,U-251 [7],1.59 µM
same,LC50 (concentration killing 50% of cells),U-251 [7],> 32.5 µM
same,TGI,U-251 [7],7.65 µM
same,GI50,[8],2.14 µM
same,TGI,[8],> 32.5 µM
same,CC50,[8]; [16],> 32.5 µM
same,GI50,OVCAR-4,3.18 µM
same,LC50 (concentration killing 50% of cells),OVCAR-4,> 32.5 µM
same,TGI,OVCAR-4,> 32.5 µM
same,growth at 10 µM,HOP-62 [9],38.1%
same,GI50,CAKI-1,1.75 µM
same,TGI,CAKI-1,> 32.5 µM
same,CC50,CAKI-1; [16],> 32.5 µM
same,growth at 10 µM,[10],29.4%
same,growth at 10 µM,OVCAR-5 [11],62.4%
same,growth at 10 µM,PC-3,4.28%
same,GI50,OVCAR-5 [12],13.7 µM
same,LC50 (concentration killing 50% of cells),OVCAR-5 [12],> 32.5 µM
same,TGI,OVCAR-5 [12],> 32.5 µM
same,GI50,SK-MEL-5,1.3 µM
same,LC50 (concentration killing 50% of cells),SK-MEL-5,13.8 µM
same,TGI,SK-MEL-5,4.71 µM
same,GI50,HOP-62 [13],6.86 µM
same,TGI,HOP-62 [13],> 32.5 µM
same,CC50,HOP-62 [13]; [16],> 32.5 µM
same,growth at 10 µM,COLO 205,94.2%
same,growth at 10 µM,SK-OV-3,21.2%
same,growth at 10 µM,NCI-H522,-10.8%
same,GI50,CCRF-CEM,1.4 µM
same,LC50,CCRF-CEM,> 32.5 µM
same,TGI,CCRF-CEM,> 32.5 µM
same,GI50,SR,1.82 µM
same,TGI,SR,20 µM
same,CC50,SR; [16],> 32.5 µM
same,growth at 10 µM,[14],24.9%
same,growth at 10 µM,U-251 [15],15.8%
